Laboratory results as given in patent US8916565B2, “Pyrrolopyrazine-spirocyclic piperidine amides as modulators of ion channels” (priority 2011, dated 2014).

Target: human NaV subtype, like NaV 1.7 (Homo sapiens, UniProt Q15858)
Experiment: E-VIPR optical membrane potential assay with electrical stimulation
Type: cell-based
Conditions: active against one or more sodium channels; Table 3 does not name the assay or NaV subtype; read-out: Binned Activity Data (IC50)

Chain of human NaV subtype, like NaV 1.7 (Q15858 whole entry): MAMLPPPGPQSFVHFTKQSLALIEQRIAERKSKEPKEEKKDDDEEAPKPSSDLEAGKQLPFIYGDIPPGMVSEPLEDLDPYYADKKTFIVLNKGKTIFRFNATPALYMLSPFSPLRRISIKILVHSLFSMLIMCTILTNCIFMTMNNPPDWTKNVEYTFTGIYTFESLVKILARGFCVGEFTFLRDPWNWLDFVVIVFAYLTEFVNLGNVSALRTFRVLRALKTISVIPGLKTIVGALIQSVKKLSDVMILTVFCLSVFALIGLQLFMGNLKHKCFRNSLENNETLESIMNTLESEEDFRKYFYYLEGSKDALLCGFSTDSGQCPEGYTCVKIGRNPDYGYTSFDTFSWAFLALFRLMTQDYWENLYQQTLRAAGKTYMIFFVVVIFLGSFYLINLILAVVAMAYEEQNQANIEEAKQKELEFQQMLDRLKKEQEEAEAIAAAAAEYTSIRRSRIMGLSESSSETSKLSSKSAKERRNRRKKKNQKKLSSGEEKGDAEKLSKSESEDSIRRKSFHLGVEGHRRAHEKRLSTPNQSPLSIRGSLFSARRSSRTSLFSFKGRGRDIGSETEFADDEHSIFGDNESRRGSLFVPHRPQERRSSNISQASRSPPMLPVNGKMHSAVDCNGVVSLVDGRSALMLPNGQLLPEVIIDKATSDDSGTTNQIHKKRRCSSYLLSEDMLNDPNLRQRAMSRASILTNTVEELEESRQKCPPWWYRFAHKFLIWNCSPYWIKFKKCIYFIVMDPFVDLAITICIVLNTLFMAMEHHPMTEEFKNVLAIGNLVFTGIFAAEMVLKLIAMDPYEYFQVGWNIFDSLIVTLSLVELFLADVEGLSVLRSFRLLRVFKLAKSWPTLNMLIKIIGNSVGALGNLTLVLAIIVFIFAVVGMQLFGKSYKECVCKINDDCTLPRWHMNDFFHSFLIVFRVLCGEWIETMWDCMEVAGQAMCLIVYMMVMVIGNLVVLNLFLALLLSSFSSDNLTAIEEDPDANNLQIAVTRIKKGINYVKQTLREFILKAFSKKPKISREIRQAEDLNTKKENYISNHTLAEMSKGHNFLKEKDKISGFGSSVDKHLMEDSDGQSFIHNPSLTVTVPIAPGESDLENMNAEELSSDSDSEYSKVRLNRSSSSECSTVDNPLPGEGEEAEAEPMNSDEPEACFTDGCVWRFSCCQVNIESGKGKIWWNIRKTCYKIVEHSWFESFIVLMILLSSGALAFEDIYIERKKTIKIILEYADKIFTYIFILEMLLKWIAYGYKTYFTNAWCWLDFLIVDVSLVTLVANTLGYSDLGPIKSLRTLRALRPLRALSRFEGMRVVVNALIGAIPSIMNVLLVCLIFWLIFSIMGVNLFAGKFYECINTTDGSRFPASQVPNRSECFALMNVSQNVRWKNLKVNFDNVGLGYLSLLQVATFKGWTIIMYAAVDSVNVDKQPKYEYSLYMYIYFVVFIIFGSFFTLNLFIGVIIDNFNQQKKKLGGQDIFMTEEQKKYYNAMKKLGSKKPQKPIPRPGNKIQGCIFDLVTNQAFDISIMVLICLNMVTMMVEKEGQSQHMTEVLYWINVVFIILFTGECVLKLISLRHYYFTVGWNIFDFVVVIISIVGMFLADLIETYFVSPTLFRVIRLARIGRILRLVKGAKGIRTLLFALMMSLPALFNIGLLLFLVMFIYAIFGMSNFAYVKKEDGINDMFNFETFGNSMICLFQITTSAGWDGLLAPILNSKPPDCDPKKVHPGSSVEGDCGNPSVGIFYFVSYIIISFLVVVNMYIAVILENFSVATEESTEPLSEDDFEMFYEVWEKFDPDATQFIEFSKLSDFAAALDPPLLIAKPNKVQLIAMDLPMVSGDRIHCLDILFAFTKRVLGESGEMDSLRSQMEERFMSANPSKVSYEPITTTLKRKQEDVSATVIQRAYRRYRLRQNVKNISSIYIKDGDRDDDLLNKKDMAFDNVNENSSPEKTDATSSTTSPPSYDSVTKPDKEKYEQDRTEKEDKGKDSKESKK

Row | IC50 | SMILES
1 | ≤ 2 µM | COCCN1CCn2c(C(F)(F)F)ccc2C12CCN(C(=O)c1ccc(C(C)(C)O)cc1)CC2 [Compound 701]
2 | ≤ 2 µM | C[C@H]1Cn2c(C(=O)C(F)(F)F)ccc2C2(CCN(C(=O)c3ccc(S(=O)(=O)C4CC4)cc3)CC2)N1C [Compound 702]
3 | > 5 µM | CC(=O)c1ccc2n1CCN(C)C21CCN(C(=O)c2ccc(C(C)(C)O)c(F)c2)CC1 [Compound 703]
4 | ≤ 2 µM | CCC(=O)c1ccc2n1CCN(C)C21CCN(C(=O)c2ccc(OC(C)C)c(C)c2)CC1 [Compound 704]
5 | ≤ 2 µM | COc1cc(C(=O)N2CCC3(CC2)NC(C)(C)Cn2c(C(=O)C(F)(F)F)ccc23)ccc1C(C)(C)C [Compound 705]
6 | ≤ 2 µM | COc1cc(C(=O)N2CCC3(CC2)c2ccc(C(F)(F)F)n2CCN3CC(F)F)ccc1OC(C)C [Compound 706]
7 | ≤ 2 µM | CC1(C)Cn2c(C(=O)C(F)(F)F)ccc2C2(CCN(C(=O)c3ccc(-c4ccccc4)cn3)CC2)N1 [Compound 707]
8 | ≤ 2 µM | O=C(c1ccc(S(=O)(=O)NC2CC2)cc1)N1CCC2(CC1)c1ccc(C(F)(F)F)n1CCN2C1CC1 [Compound 708]
9 | ≤ 2 µM | CC(C)Oc1ccc(C(=O)N2CCC3(CC2)c2ccc(C(F)(F)F)n2CCN3C)cc1CO [Compound 709]
10 | ≤ 2 µM | Cc1cc(C(=O)N2CCC3(CC2)c2ccc(Cl)n2CCN3C)ccc1OC(C)C [Compound 710]
11 | ≤ 2 µM | Cc1cc(C(=O)N2CCC3(CC2)c2ccc(C(=O)C(C)(C)C)n2CCN3C)ccc1OCCCO [Compound 711]
12 | ≤ 2 µM | CC(C)COc1ccc(C(=O)N2CCC3(CC2)c2ccc(C(=O)C(F)(F)F)n2CCN3C)nc1 [Compound 712]
13 | 2 to 5 µM | COc1ccc(C(=O)N2CCC3(CC2)c2c(Cl)cc(C(F)(F)F)n2CCN3C)cc1C [Compound 713]
14 | > 5 µM | Cc1c(O)cccc1C(=O)N1CCC2(CC1)c1ccc(C(=O)C(F)(F)F)n1CCN2C [Compound 714]
15 | ≤ 2 µM | Cc1cc(C(=O)N2CCC3(CC2)NCCn2c(C(F)(F)F)ccc23)ccc1C(C)(C)O [Compound 715]
16 | ≤ 2 µM | CNS(=O)(=O)c1ccc(C(=O)N2CCC3(CC2)c2ccc(C(F)(F)F)n2CCN3C)cc1 [Compound 716]
17 | ≤ 2 µM | CN1CCn2c(C(=O)C(F)(F)F)ccc2C12CCN(C(=O)c1ccc(-c3ccccc3)c(F)c1)CC2 [Compound 717]
18 | 2 to 5 µM | CC(C)Nc1ncccc1C(=O)N1CCC2(CC1)c1ccc(C(F)(F)F)n1CCN2C [Compound 718]
19 | 2 to 5 µM | COc1cc(C(=O)N2CCC3(CC2)c2ccc(C(F)(F)F)n2C(CO)CN3C)ccc1OC(C)C (stereo not drawn) [Compound 719]
20 | > 5 µM | CN1CCn2c(C(=O)C(F)(F)F)ccc2C12CCN(C(=O)c1ccc(F)c(O)c1)CC2 [Compound 720]
21 | ≤ 2 µM | CC(C)Oc1ccc(C(=O)N2CCC3(CC2)NC(C)(C)Cn2c(C(F)(F)F)ccc23)c(F)c1 [Compound 721]
22 | ≤ 2 µM | COc1cc(C(=O)N2CCC3(CC2)c2ccc(C(F)(F)C(F)(F)F)n2CCN3C)ccc1OC(C)C [Compound 722]
23 | ≤ 2 µM | Cc1cc(C(=O)N2CCC3(CC2)c2ccc(C(F)(F)F)n2CCN3CC(=O)N(C)C)ccc1OC(C)C [Compound 723]
24 | > 5 µM | CN1CCn2c(C(=O)C(F)(F)F)ccc2C12CCN(C(=O)c1ccc(-c3ccccc3F)cn1)CC2 [Compound 725]
25 | ≤ 2 µM | COc1ccc(C(=O)N2CCC3(CC2)c2ccc(C(=O)C(F)(F)F)n2C[C@H](C)N3C)cc1C(F)(F)F [Compound 726]
26 | ≤ 2 µM | CC[C@@H](C)Oc1ccc(C(=O)N2CCC3(CC2)c2ccc(C(F)(F)F)n2CCN3C)cc1OC [Compound 727]

Row | IC50 | SMILES
27 | ≤ 2 µM | COc1ccc(-c2ccc(C(=O)N3CCC4(CC3)c3ccc(C(=O)C(F)(F)F)n3CCN4C)cc2C)cc1 [Compound 728]
28 | ≤ 2 µM | CCOC(=O)N1CCn2c(C#N)ccc2C12CCN(C(=O)c1ccc(OC(C)C)c(C)n1)CC2 [Compound 729]
29 | ≤ 2 µM | CCOc1cc(C(=O)N2CCC3(CC2)c2ccc(C(F)(F)F)n2CCN3C)ccc1OC [Compound 730]
30 | 2 to 5 µM | Cc1ccnc2c(C(=O)N3CCC4(CC3)c3ccc(C(F)(F)F)n3CCN4C)cnn12 [Compound 731]
31 | ≤ 2 µM | CC(=O)c1ccc2n1CCN(C)C21CCN(C(=O)c2ccc(OC(C)C)c(C(F)(F)F)c2)CC1 [Compound 732]
32 | ≤ 2 µM | CN1CCn2c(C(=O)C(F)(F)F)ccc2C12CCN(C(=O)c1ccc(O)c(C(F)(F)F)c1)CC2 [Compound 733]
33 | > 5 µM | CC(=O)c1ccc2n1CCN(C)C21CCN(C(=O)c2ccc(OC(C)C)c(F)c2)CC1 [Compound 734]
34 | ≤ 2 µM | COc1ccc(C(=O)N2CCC3(CC2)c2ccc(C(=O)C(C)C)n2CCN3C)cc1C(F)(F)F [Compound 735]
35 | ≤ 2 µM | COCCOc1ccc(C(=O)N2CCC3(CC2)c2c(F)cc(C(F)(F)F)n2CCN3C)cc1 [Compound 736]
36 | ≤ 2 µM | CCNc1cc(C)nc2c(C(=O)N3CCC4(CC3)c3ccc(C(F)(F)F)n3CCN4C)cnn12 [Compound 737]
37 | ≤ 2 µM | COc1ccc(C(=O)N2CCC3(CC2)NC(C)(C)Cn2c(C(=O)C(F)(F)F)ccc23)c(C)c1 [Compound 738]
38 | > 5 µM | CC(=O)c1ccc2n1CCN(C)C21CCN(C(=O)c2ccc(C(OCC(F)(F)F)OCC(F)(F)F)c(Cl)c2)CC1 [Compound 739]
39 | ≤ 2 µM | CCCCc1ccc(C(=O)N2CCC3(CC2)c2ccc(C(=O)C(F)(F)F)n2CCN3C)cc1 [Compound 740]
40 | ≤ 2 µM | CCOC(=O)N1CCn2c(C(F)(F)F)ccc2C12CCN(C(=O)c1ccc(OC(C)C)c(OC)c1)CC2 [Compound 741]
41 | 2 to 5 µM | COc1cc(C(=O)N2CCC3(CC2)c2c(C#N)cc(C(F)(F)F)n2CCN3C)ccc1OC(C)C [Compound 742]
42 | ≤ 2 µM | CN1CCn2c(ccc2C(F)(F)C(F)(F)F)C12CCN(C(=O)c1ccc(C(C)(C)O)cc1)CC2 [Compound 743]
43 | ≤ 2 µM | CC(C)Oc1ccc(C(=O)N2CCC3(CC2)c2ccc(C(=O)C4CC4)n2CCN3C)cc1F [Compound 744]
44 | ≤ 2 µM | CC[C@@H](C)Oc1ccc(C(=O)N2CCC3(CC2)NCCn2c(C(F)(F)F)ccc23)cc1OC [Compound 745]
45 | ≤ 2 µM | COc1ccc(C(=O)N2CCC3(CC2)c2ccc(C(=O)C(F)(F)F)n2CCN3C)nc1C [Compound 746]
46 | ≤ 2 µM | COc1ccc(C(=O)N2CCC3(CC2)c2ccc(C(=O)C(F)(F)F)n2C(C)CN3C)cc1Cl (stereo not drawn) [Compound 747]
47 | > 5 µM | CN1CC(C)(C)n2c(C(=O)C(F)(F)F)ccc2C12CCN(C(=O)c1ccc(C(C)(C)O)c(F)c1)CC2 [Compound 748]
48 | 2 to 5 µM | CC(C)Oc1ccc(C(=O)N2CCC3(CC2)c2ccc(C(F)(F)F)n2C[C@@H](C)N3C)c(F)c1 [Compound 749]
49 | > 5 µM | Cc1cc(C(=O)N2CCC3(CC2)c2ccc(Cl)n2CCN3C)ccc1S(=O)(=O)C(C)C [Compound 750]
50 | ≤ 2 µM | C=C(C)Oc1ccc(C(=O)N2CCC3(CC2)c2ccc(C(F)(F)F)n2CCN3C)cc1OC [Compound 751]
51 | ≤ 2 µM | CN1CCn2c(C(=O)C(F)(F)F)ccc2C12CCN(C(=O)c1ccc(S(=O)(=O)N(C)c3nccs3)cc1)CC2 [Compound 752]
